In patent EP3322687B1, “2-BENZYL-INDANONE COMPOUNDS AS ANTICANCER AGENT AND A PROCESS FOR PREPARATION THEREOF” (Council of Scientific and Industrial Research, priority 2015, dated 2017):
Several values for one entry are separate records, joined by “and”; a condition that tells them apart may be missing. Equal values may be shown once.

Legend:
Ehrlich Tumor (solid) = type: in vivo, Swiss mice
Procedure: Ehrlich ascites carcinoma (EAC) cells were collected from the peritoneal cavity of the Swiss mice harbouring 8-10 days old ascitic tumor. 1x10^7 EAC cells were injected intramuscularly in right thigh of Swiss male mice selected for the experiment on day 0. The next day, animals were randomized and divided into different groups. Two treatment groups contained 7 animals each and one control group contained 10 animals. The first treatment group was given compound 2 (20 mg/kg i/p) from day 1-9. The second treatment group was treated with 5-fluorouracil (22 mg/kg, i.p) from day 1-9 and it served as positive control. The control group was similarly administered normal saline (0.2 ml, i.p.) from day 1-9. On day 9 & 13, tumor bearing thigh of each animal was shaved and longest and shortest diameters of the tumor were measured with the help of vernier caliper. Tumor weight of each animal was calculated using the following formula. Tumor weight (mg) = (Length(mm) × ([width(mm)])^2)/(2) [formula]
The percent tumor growth inhibition was calculated on day 13 by comparing the average values of treated groups with that of control group. Tumor growth in saline treated control animals was taken to be 100%. Table 6. In-vivo anticancer activity of 2 against Ehrlich ascites carcinoma (solid)

[1] = test system: various human cancer cell lines; experiment: Cytotoxicity against various human cancer cell lines (summary statement); type: cell-based; details: read-out: cytotoxicity against various human cancer cell lines, IC50
Procedure: The benzyl compounds were evaluated by Sulforhodamine B Assay as per reported method [Skehan etal., J. Natl. Cancer Inst.1990, 82, 1107]. The human cancer cell lines procured from National Cancer Institute, Frederick, U. S. A. were used in present study. Cells were grown in tissue culture flasks in complete growth medium (RPMI-1640 medium with 2 mM glutamine, pH 7.4 supplemented with 10% fetal bovine serum, 100 µg/ml streptomycin and 100 units/ml penicillin) in a carbon dioxide incubator (37°C, 5% CO2, 90% RH). The cells at subconfluent stage were harvested from the flask by treatment with trypsin (0.05% in PBS (pH 7.4) containing 0.02% EDTA). Cells with viability of more than 98%, as determined by trypan blue exclusion, were used for determination of cytotoxicity. The cell suspension required concentration of cells was prepared in complete growth medium. Stock solution of 2x10^-2 M of compounds were prepared in DMSO and further dilution was carried out complete growth medium containing 50µg/ml of gentamycin to obtained working test solution of required concentration. In vitro cytotoxicity against various human cancer cell lines was determined using 96-well cell culture plates. […] Cell growth was measured by staining with sulforhodamine B dye. […] The optical density (OD) was recorded on ELISA reader at 540nm. […]

tubulin protein = type: biochemical; details: tubulin 3mg/mL, 37° C, 340 nm, 1h; read-out: Tubulin polymerisation inhibition IC50
Procedure: The tubulin polymerization experiment was performed using 'assay kit'(Cytoskeleton USA) following manufacturer's protocol based on the procedure described by of Shelanski et al, (1973) and Lee et al. (1977). Briefly, tubulin protein (3mg/mL) in tubulin polymerization buffer (80 mM PIPES, pH 6.9, 2 mM MgCl2, 0.5 mM EGTA, 1 mM GTP and 15% glycerol) was placed in prewarmed 96-well microtiter plates at 37° C in the presence of test compounds with variable concentrations. All samples were mixed well and polymerization was monitored kinetically at 340 nm every min for 1h using a Spectramax plate reader. The IC50 value was determined from dose-dependent analysis and is defined as the concentration that inhibits the rate of polymerization by 50%. Podophyllotoxin was used as standard tubulin polymerisation inhibitor as positive control.

[2] = test system: Ehrlich Ascites Carcinoma (EAC); type: in vivo, Swiss mice
Procedure: Ehrlich ascites carcinoma (EAC) cells were collected from the peritoneal cavity of the Swiss mice harbouring 8-10 days old ascitic tumor. 1x10^7 EAC cells were injected intraperitoneally in Swiss mice selected for the experiment on day 0. The next day, animals were randomized and divided into different groups. The treatment groups contained 7 animals each and control group contained 10 animals. The treatment group was treated with 20 mg/kg of Compound 2 intra-peritoneally from day 1-9. One more of the treatment group received 5-fluorouracil (20 mg/kg, i.p) and it served as positive control. The tumor bearing control group was similarly administered normal saline (0.2 ml, i.p.). On day 12, animals were sacrificed and ascitic fluid was collected from peritoneal cavity of each mouse for the evaluation of tumor growth. Percent tumor growth inhibition was calculated based on the total number of tumor cells present in the peritoneal cavity as on day 12 of the experiment using the following formula. Percent tumor growth inhibition = (Av.no.of cells in control group−Av.no.of cells in treated group)/(Av.no.of cells in control group) × 100 [formula]

COc1cc(C2c3c(cc(OC)c(OC)c3OC)C(=O)C2Cc2ccc3c(c2)OCO3)cc(OC)c1OC (stereo not shown) [Compound 2, 2-(3",4"-methylenedioxybenzyl)-3-(3',4',5'-trimethoxyphenyl)-4,5,6-trimethoxy-indan-1-one]
Day 13 Av. Tumor weights (Ehrlich Tumor (solid); 20 mg/kg i/p day 1-9, Day 13): 1178.35 ± 32.72 mg | %Tumor Growth Inhibition (Ehrlich Tumor (solid); 20 mg/kg i/p day 1-9, day 13): 42.77% and 42.771% | Mortality (Ehrlich Tumor (solid); 20 mg/kg i/p day 1-9, dead/total animals): 0/7 | Day 13 Av. Body weights (Ehrlich Tumor (solid); 20 mg/kg i/p day 1-9, male Swiss mice, Day 13): 23.28 g | Av. Body weights (g) of animals on days 1 (Ehrlich Tumor (solid); 20 mg/kg i/p day 1-9, male Swiss mice, day 1): 21.42 g | better activity (in-vivo) over the parent compound 12 (Ehrlich Tumor (solid); solid tumour, 20mg/kg dose, relative to compound 12): 19.1% | IC50 [1]: 1000 to 3000 nM | IC50 (tubulin protein): 2080 nM | %Tumor Growth Inhibition ([2]; 20 mg/kg i/p day 1-9, Day 12): 67.64% | Av, Volume of ascitic fluid ([2]; 20 mg/kg i/p day 1-9, Day 12): 6.31 mL | Av. No. of tumor cells ([2]; 20 mg/kg i/p day 1-9, Day 12): 44.78 x 10^7 | Av. Weight of ascitic fluid ([2]; 20 mg/kg i/p day 1-9, Day 12): 6.02 g | % Tumor cell growth ([2]; 20 mg/kg i/p day 1-9, Day 12, control = 100): 32.36% | Mortality ([2]; 20 mg/kg i/p day 1-9, Day 12, dead/total animals): 0/7 | Body weight Day 1 ([2]; 20 mg/kg i/p day 1-9, EAC-bearing female Swiss mice, Day 1): 21.0 g | Body weight Day 5 ([2]; 20 mg/kg i/p day 1-9, EAC-bearing female Swiss mice, Day 5): 21.86 g | Body weight Day 9 ([2]; 20 mg/kg i/p day 1-9, EAC-bearing female Swiss mice, Day 9): 22.28 g | Body weight Day 12 ([2]; 20 mg/kg i/p day 1-9, EAC-bearing female Swiss mice, Day 12): 22.66 g | better activity (in-vivo) over the parent compound 12 ([2]; Ehrlich ascites carcinoma, 20mg/kg dose, relative to compound 12): 48.72%
